Results taken from patent US6452050B1, “Synthesis and use of α-ketoamide derivatives and arrays” (ArQule, Inc., priority 1997, dated 2002).

Molecular target: T1, Cathepsin B (EC 3.4.22.1, from human liver) (Homo sapiens, UniProt P07858)
T1 construct: Cathepsin B (EC 3.4.22.1, from human liver) was purchased from Sigma Chemical Company; purchased Sigma Chemical Company (St. Louis, Mo.); host or cells: human liver
Experiment: High-throughput fluorometric cathepsin B assay (Z-F-R-AMC substrate)
Type: biochemical
Settings: cruzain versus cathepsin B IC50
Procedure: A fluorometric high throughput cathepsin B assay for detecting inhibitory activity was developed in 96-well microtiter plate format. Benzyloxy-Phe-Arg-AMC (Z-F-R-AMC; Molecular Probes, Inc., Eugene, Oreg.) was the substrate used in the assay (Km=150 μM). Cathepsin B (EC 3.4.22.1, from human liver) was purchased from Sigma Chemical Company (St. Louis, Mo.) in a stock solution containing 25 μg of the protein in 25 μl buffer (i.e., 20 mM sodium acetate, pH 5.0, and 1 mM EDTA).
The bioassay of the compounds was performed on a Sagian/Beckman Integrated robotic system (Beckman, Fullerton, Calif.). Inhibition of enzyme activity was measured via fluorescent detection. Fluorescence readings were taken at an excitation wavelength of […] (λmax=350 nm) and an emission wavelength of 430 nm (λmax=430 nm) on a BMG FluoStar (BMG, Durham, N.C.). […]
The reaction was initiated by the addition of the cathepsin B (0.46 ng/ml) in the assay buffer containing dithiothreitol (giving a final concentration of 1.5 mM). […] The activity was obtained by observing the end point absorbance reading after quenching. The percentage of inhibition was calculated by dividing the absorbance measured in the presence of inhibitor plus enzyme (inhibited signal) by the absorbance measured in the presence of enzyme alone (full signal) minus the absorbance obtained in the absence of both inhibitors and the enzyme (background). […]

## O=C(Nc1ccc(CNC(=O)C(=O)c2ccc(-c3ccccc3)cc2)cc1)Nc1ccc(-c2ccccc2)cc1 [Compound 4]
  selectivity over cathepsin B: greater than 20 fold
